Assay results as given in US20240148723A1, “MYCOBACTERIUM TUBERCULOSIS COMPOSITIONS AND METHODS” (priority 2021, published 2024).
≈ marks a conversion by molar mass, not a printed value. Where “and” joins values, the source holds several entries; their conditions need not be identical. Equal values may be shown once. Entries after “also recorded” stand apart in the source; their conditions may differ. Read-outs that look alike come from different tables or passages of the source.

Columns and labels:
M. tuberculosis H37Ra [1] = assay type: cell-based, Mycobacterium tuberculosis
[2] = tested on: M. tuberculosis H37Ra PZA^R #78; assay: microbe, parasite or virus in culture; assay type: cell-based; conditions: Mycobacterium tuberculosis, 504 h, pH 6.8, read-out: MIC of PZA
[3] = tested on: M. tuberculosis H37Ra PZA^R #98; assay: microbe, parasite or virus in culture; assay type: cell-based; conditions: Mycobacterium tuberculosis, 504 h, pH 6.8, read-out: MIC of PZA
[4] = tested on: M. tuberculosis H37Ra PZA^R #186; assay: microbe, parasite or virus in culture; assay type: cell-based; conditions: Mycobacterium tuberculosis, 504 h, pH 6.8, read-out: MIC of PZA
H37Ra = assay: microbe, parasite or virus in culture; assay type: cell-based, Mycobacterium tuberculosis
M. tuberculosis H37Ra [5] = assay: microbe, parasite or virus in culture; assay type: cell-based, Mycobacterium tuberculosis; conditions: for MIC: Mycobacterium tuberculosis, H37RA
[6] = tested on: M. tuberculosis H37Ra PZA^R #6; assay: microbe, parasite or virus in culture; assay type: cell-based; conditions: Mycobacterium tuberculosis, 504 h, pH 6.8, read-out: MIC of PZA
[7] = tested on: M. tuberculosis H37Ra PZA^R #106; assay: microbe, parasite or virus in culture; assay type: cell-based; conditions: Mycobacterium tuberculosis, 504 h, pH 6.8, read-out: MIC of PZA
[8] = tested on: M. tuberculosis H37Ra (PZA^S); assay type: cell-based; conditions: test tubes, PZA-S1 medium, pH 6.8
M. tuberculosis H37Ra [9] = assay: microbe, parasite or virus in culture; assay type: cell-based, Mycobacterium tuberculosis; conditions: for MIC: Mycobacterium tuberculosis, H37RA; remark: listed apart in the source

NC(=O)c1cnccn1 [PZA, Pyrazinamide]
lawn formation of M. tuberculosis (M. tuberculosis H37Ra [1]; pH 6.6): no inhibition
growth inhibition, paper disk (M. tuberculosis H37Ra [1]; pH 6.8): small inhibition zone; also recorded: strong growth inhibition
lawn formation of M. tuberculosis (M. tuberculosis H37Ra [1]; pH 6.8): inhibited lawn formation
MIC [2]: > 800 µg/mL
MIC [3]: > 800 µg/mL
MIC [4]: > 800 µg/mL
Percentage of CFU to Z 0 (H37Ra): 1.20% and 0.14% and 0.02% and 0.08%
MIC (H37Ra; Mycobacterium tuberculosis, H37RA, read-out: MIC of PZA): 50 µg/mL
MIC (M. tuberculosis H37Ra [5]; 336 h, pH 6.8): 200 µg/mL (≈ 1620 µM)
MIC (M. tuberculosis H37Ra [5]; pH 6.8, read-out: MICs of PZA): 100 to 200 µg/mL (≈ 812 to 1620 µM)
MIC (M. tuberculosis H37Ra [5]; read-out: MIC of PZA): 50 µg/mL
increase in MIC between 1/100 and 1/10 inoculum size dilutions (M. tuberculosis H37Ra [5]; pH 6.8): 2-8 fold
MIC [6]: > 800 µg/mL
MIC [7]: > 800 µg/mL
concentration of PZA at which growth was inhibited [8]: 200 µg/mL
MIC for PZA lower in acidic conditions (pH 6.5 and pH 6.0) than in neutral pH 7.0 conditions (M. tuberculosis H37Ra [9]): 8 fold
MIC (M. tuberculosis H37Ra [9]; pH 5.5, read-out: MIC for PZA): < 12.5 µg/mL
MIC (M. tuberculosis H37Ra [9]; pH 6, read-out: MIC for PZA): 100 µg/mL (≈ 812 µM)
MIC (M. tuberculosis H37Ra [9]; pH 7, read-out: MIC for PZA): 25 µg/mL (≈ 203 µM)
MIC (M. tuberculosis H37Ra [9]; pH 8, read-out: MIC for PZA): 200 µg/mL (≈ 1620 µM)
MIC (M. tuberculosis H37Ra [9]; read-out: MIC for PZA): 200 µg/mL (≈ 1620 µM)
growth (M. tuberculosis H37Ra [9]; pH 5): −
growth (M. tuberculosis H37Ra [9]; pH 5.5): − and +
growth (M. tuberculosis H37Ra [9]; pH 6): + and −
growth (M. tuberculosis H37Ra [9]; pH 6.5): + and −
growth (M. tuberculosis H37Ra [9]; pH 7): + and −
growth (M. tuberculosis H37Ra [9]; pH 7.5): − and +
growth (M. tuberculosis H37Ra [9]; pH 8): − and +
growth (M. tuberculosis H37Ra [9]; pH 8.5): − and +
